{"source": "patent US20170057995A1", "about": "“USE OF AROMATIC-CATIONIC PEPTIDES TO TREAT CHOLESTEROL-INDUCED MITOCHONDRIAL DYSFUNCTION” (CORNELL UNIVERSITY, priority 2013, published 2017)", "key": {"[1]": {"system": "cytochrome c", "assay": "Cytochrome c peroxidase activity (Amplex Red Peroxidase Kit)", "type": "biochemical", "conditions": "for reduction in cytochrome c peroxidase activity compared to cytochrome c exposed to chol-POPC liposomes only: 300 μM chol-POPC liposomes, cytochrome c incubated with peptide first, peptide concentration not stated (FIG. 2 range 0-300 μM); for effect on cholesterol-induced cytochrome c peroxidase activity (FIG. 2): peptide 0 μM to 300 μM, 300 μM cholesterol", "experimental": "Cytochrome c peroxidase activity was measured using the Amplex Red Peroxidase Kit. Amplex Red reagent reacts with H2O2 in a 1:1 ratio in the presence of a peroxidase in order to create a highly fluorescent compound called resorufin, which has an excitation at 570 nm and an emission at 585 nm. 2 μM cytochrome c was incubated in 20 mM Hepes buffer pH 7.4 with varying concentrations of free cholesterol dissolved in ethanol or cholesterol-POPC liposomes (chol-POPC). 10 μM of H2O2 and 50 μM of Amplex Red reagent were subsequently added. The fluorescence was then measured using time course data collected from a Spectra Max 190 microplate spectrofluorometer (Molecular Devices, Sunnyvale, Calif.). Liposomes were prepared as previously described in Melzak et al., Langmuir, 24: 9172-9180 (2008). Chol-POPC liposomes were prepared in a 1:1 molar ratio. Stock solutions were mixed and then dried under nitrogen from 30 minutes. After resuspension in 20 mM Hepes buffer pH 7.4, the liposomes were extruded 25 times through a 50 nm pore membrane (Avestin)."}, "[2]": {"system": "cytochrome c", "assay": "Cytochrome c reduction by ascorbate (absorbance at 550 nm)", "type": "biochemical", "conditions": "100 μM chol-POPC liposomes, 20 μM cytochrome c, 50 μM vitamin C; peptide up to 300 μM", "experimental": "Liposomes were prepared as previously described in Melzak et al., Langmuir, 24: 9172-9180 (2008). Chol-POPC liposomes were prepared in a 1:1 molar ratio. Stock solutions were mixed and then dried under nitrogen from 30 minutes. After resuspension in 20 mM Hepes buffer pH 7.4, the liposomes were extruded 25 times through a 50 nm pore membrane (Avestin). 20 μM cytochrome c in Hepes buffer pH 7.4 was contacted with varying concentrations of chol-POPC liposomes and peptide. 50 μM ascorbate (vitamin C) was added after five minutes in order to promote the reduction the cytochrome c protein. The absorbance at 550 nm was then recorded in order to obtain the rate of the reaction after treatment with varying concentrations of peptide and cholesterol using a spectrophotometer (Spectramax Gemini XPS, Molecular Devices, Sunnyvale, Calif.). (See Basova et al., 2007)."}, "[3]": {"system": "cytochrome c", "assay": "Circular dichroism spectroscopy of cytochrome c (Soret region)", "conditions": "100 μM peptide; 40 μM chol-POPC liposomes; 10 mM cytochrome c", "experimental": "The circular dichroism (CD) spectra was collected using an AVIA 62 DS spectrophotometer. The CD spectra was analyzed between 375-450 nm in order to monitor the Soret region using a CD 10-mm path-length for cells containing 20 mM Hepes (pH 7.4) and […] cytochrome c in the presence or absence of 40 μM chol-POPC liposomes and/or 100 μM SS-31.\nCircular dichroism (Olis DSM20 spectropolarimeter) was carried out to analyze Soret region (375-450 nm), a probe for the attachment of the Met80 residue to the heme iron. The decreased intensity of the 416 nm Cotton effect (negative Cotton peak) is indicative of a perturbed heme pocket region, as the 416 nm dichroic band serves as a readout for the Met80-Fe(III) coordination in native cytochrome c. (Santucci et al., 1997). […] The CD spectra data comports with the findings of Examples 1 and 3 because the disruption of the Fe-Met80 coordination increases the exposure of the heme Fe to H2O2, thereby causing cytochrome c to switch from an electron carrier to a peroxidase."}, "[4]": {"system": "cytochrome c", "assay": "Absorbance spectrum of cytochrome c (Soret band, 350-450 nm)", "conditions": "100 μM peptide", "experimental": "The effects of cholesterol and aromatic-cationic peptides on the structure of cytochrome c were analyzed using absorbance spectra (Pinherio et al., 1997). Wild-type cytochrome c typically has a peak at around 410 nm (which represents the Soret region) that may be affected by protein damage. Absorbance between 350-450 nm was analyzed using a Spectramax Gemini XPS spectrophotometer (Molecular Devices, Sunnyvale, Calif.).\nCholesterol-induced structural alterations of cytochrome c were also analyzed using absorption spectroscopy. The absorbance spectrum between 350 and 450 nm was analyzed so as to monitor changes to the Soret band. A Soret band with a maximum intensity at 410 nm is indicative of the presence of both axial ligands (His18 and Met80 ligated to heme iron). (Pinherio et al., 1997)."}}, "note": "Where no end group is shown, it is not given here. [ ]: non-standard residue; d: D form."}
{"molecule": "F[dR]FK-NH2 [SS-20]", "values": [{"measurement": "reduction in cytochrome c peroxidase activity compared to cytochrome c exposed to chol-POPC liposomes only", "setting": "[1]", "result": 77, "unit": "%"}, {"measurement": "effect on cholesterol-induced cytochrome c peroxidase activity (FIG. 2)", "setting": "[1]; 2 μM cytochrome c", "result": "inhibit cholesterol-induced cytochrome c peroxidase activity in a dose-dependent manner"}, {"measurement": "effect on cholesterol-induced impairment of cytochrome c reduction (FIG. 3B)", "setting": "[2]", "result": "reversed"}]}
{"molecule": "CC(C)CCC[C@@H](C)[C@H]1CC[C@H]2[C@@H]3CC=C4C[C@@H](O)CC[C@]4(C)[C@H]3CC[C@]12C", "note": "[cholesterol]", "values": [{"measurement": "increase in cytochrome c peroxidase activity", "setting": "[1]; 300 μM, 2 μM cytochrome c, 10 μM H2O2, 50 μM Amplex Red", "result": 40, "unit": "fold"}]}
{"molecule": "D-Arg-2′,6′-Dmt-Lys-Phe-NH2 [SS-31]", "values": [{"measurement": "reduction in cytochrome c peroxidase activity compared to cytochrome c exposed to chol-POPC liposomes only", "setting": "[1]", "result": 75, "unit": "%"}, {"measurement": "effect on cholesterol-induced cytochrome c peroxidase activity (FIG. 2)", "setting": "[1]; 2 μM cytochrome c", "result": "inhibit cholesterol-induced cytochrome c peroxidase activity in a dose-dependent manner"}, {"measurement": "effect on cholesterol-induced impairment of cytochrome c reduction (FIG. 3B)", "setting": "[2]", "result": "reversed"}, {"measurement": "negative Cotton peak of cytochrome c incubated with chol-POPC liposomes (CD spectra)", "setting": "[3]", "result": "restores the negative Cotton peak"}, {"measurement": "intensity of the 410 nm absorbance peak of cytochrome c incubated with chol-POPC liposomes", "setting": "[4]", "result": "increases the intensity of the 410 nm peak"}]}
